From patent publication US10457649B2, “Polymorphs of a mPGES-1 inhibiting triazolone compound” (Glenmark Pharmaceuticals S.A., priority 2015, dated 2019)

Assay: Stability studies of compound of formula II on storage; degradation products estimated by HPLC
Assay type: physicochemical
Excerpt: Apparatus: A High Performance Liquid Chromatograph equipped with quaternary gradient pumps, variable wavelength UV detector attached with data recorder and Integrator software or equivalent.
Column: Zorbax Eclipse XDB C-8, 150 mm×4.6 mm, 5μ or equivalent
Mobile phase: A: Buffer B: Methanol (Gradient Program)
Buffer: Water, pH adjusted to 2.2 with trifluoroacetic acid solution. Filter through 0.45μ filter paper and degas.
Diluent: Water: Methanol (20:80 v/v)
Detection wavelength: UV 270 nm
Column temperature: 25° C.
25 mg of the compound was weighed and transferred into a 50 mL volumetric flask. Methanol (5 ml) was added and it was sonicated to dissolve. The diluent was added to make up the solution to the mark of the flask.
The equal volumes of blank (diluent) and test solution were separately injected into the High Performance liquid chromatography. The responses were recorded eliminating the peaks due to blank and the chromatographic purity by area was calculated by normalization method.
The compound of formula II was stored under conditions as shown in below table and a total amount of degradation products (related substances) as well as single maximum impurity formed during storage was estimated by HPLC. The material was packed in inner clear polythene bag under nitrogen lined with black polythene bag, covered with triple laminated aluminium bag placed in HDPE drum and subjected to the conditions mentioned in the table 5.
The result of stability studies of compound of formula (II) carried out under the conditions mentioned in the table 5 is presented in tables 6 and 7.

[1] = storage condition 1: 25 ± 2° C., 60 ± 5% RH, storage period 0 months
[2] = storage condition 1: 25 ± 2° C., 60 ± 5% RH, storage period 3 months
[3] = storage condition 1: 25 ± 2° C., 60 ± 5% RH, storage period 6 months
[4] = storage condition 2: 40 ± 2° C., 75 ± 5% RH, storage period 0 months
[5] = storage condition 2: 40 ± 2° C., 75 ± 5% RH, storage period 1 month
[6] = storage condition 2: 40 ± 2° C., 75 ± 5% RH, storage period 2 months
[7] = storage condition 2: 40 ± 2° C., 75 ± 5% RH, storage period 3 months
[8] = storage condition 2: 40 ± 2° C., 75 ± 5% RH, storage period 6 months

- Related substances [1]: 0.13%
- Single max. impurity [1]: 0.13%
- Related substances [2]: 0.14%
- Single max. impurity [2]: 0.14%
- Related substances [3]: 0.14%
- Single max. impurity [3]: 0.14%
- Related substances [4]: 0.13%
- Single max. impurity [4]: 0.13%
- Related substances [5]: 0.14%
- Single max. impurity [5]: 0.14%
- Related substances [6]: 0.13%
- Single max. impurity [6]: 0.13%
- Related substances [7]: 0.14%
- Single max. impurity [7]: 0.14%
- Related substances [8]: 0.13%
- Single max. impurity [8]: 0.13%
Compound: CC(C)(C)C(=O)NCc1ccc(Cl)c(-c2nn(-c3ccc(C(F)(F)F)cc3)c(=O)[nH]2)c1 [compound of formula II, N-(4-chloro-3-(5-oxo-1-(4-(trifluoromethyl)phenyl)-4,5-dihydro-1H-1,2,4-triazol-3-yl)benzyl)pivalamide]
